For data set [1] the following is noted: cited from earlier work.
A short description of data set [2]: Extent of availability after different routes, intravenous administration as reference. Format: in vivo, rabbit. The following applies: i.v. as reference. The method, then: (§1) The following pharmacological experimentation was carried out in order to estimate the comparative absorption and bioavailability through various administration routes in rabbits of Alclofenac acid and its lysine salt.

Another data set in a line: Solubility. Format: physicochemical. The following applies: in words, solvent as stated.
A short description of data set [3]: Pharmacokinetics from plasma levels after oral, rectal and intramuscular administration in rabbits. The format is in vivo, rabbit. The following applies: for Ka / t1/2α / CL/F / k el / Cmax / Vd/F / half-life / Tmax: ± E.S.M.; for CL/F / k el / Cmax / Vd/F / half-life / Tmax: rabbit, plasma; for Cmax: read-out: Cmax; for Vd/F: read-out: Vdβ; for half-life: read-out: t1/2β; for Tmax: read-out: tmax (converted). The method, then: as §1

Data set [4] has as its system rabbit dorsal long muscle. The data set is described as follows: Local tolerability after intramuscular injection, muscle removed at 24 hours, irritation by arbitrary scores. The format is in vivo. Details: scale not given here. The method, then: Such a tolerability was estimated after injection of equivalent solutions of the various preparations, effected in the rabbit dorsal long muscle, removing muscle 24 hours after injection and estimating the degree of induced irritation through arbitrary scores.

Data set [5] can be described thus: Stability and hygroscopicity. Format: physicochemical. The following applies: for Hygroscopicity: isolated solid; for Stability of the solution: in words.
The nature of the next data set: pH of aqueous solution. The following applies: aqueous solution as prepared. The format is physicochemical.
Data set [6] can be described thus: General tolerability by route of administration. The format is in vivo. The following applies: intravenous or intramuscular; listed as Mono-ethanolamine solution.
For data set [7] the following is noted: intravenous route, prior knowledge; cited from earlier work.
Setting [8] is: 100 mg/ml (as acid), 0.5 ml injected.
Where [9] appears, read: 131 mg/ml (as acid), 0.25 ml injected.
[10] abbreviates: 100 mg/ml (as acid), 0.25 ml injected.
[11] abbreviates: listed as Mono-ethanolamine solution.

“And” between values parts separate entries of the source, which are not always exact repeats. Equal values may be shown once. “Also recorded” adds a separate entry of the source. Where a name gives a salt, the structure may show the parent alone. Read-outs that look alike come from different tables or passages of the source.

For `C=CCOc1ccc(CC(=O)O)cc1Cl` [Alclofenac, 4-allyloxy-3-chlorophenylacetic acid, reference compound], the antiinflammatory properties result in data set [1] (in vivo) is “antiinflammatory properties”. In data set [1] (versus acetylsalicylic acid), the analgesic activity entry was “marked analgesic activity, higher than acetylsalicylic acid”. The “% Availability (AUC o → 4h)” value in [2] (P.O. 90 mg/kg, 0-4 h, 90 mg/kg, 240 min) is on record as 42.4%. In [2] (P.O. 90 mg/kg, 90 mg/kg), the “% Availability (practical AUC)” value was found to be 84.0% and the “% Availability (theoretical AUC)” value turned out to be 89.2%. For the same compound, the “% Availability (AUC o → 2h)” value in data set [2] (Rectal 100 mg/kg, 0-2 h, 100 mg/kg, 120 min) was 83.24%. Moreover, in data set [2] (Rectal 100 mg/kg, 100 mg/kg), the “% Availability (practical AUC)” value was found to be 105.7% and the “% Availability (theoretical AUC)” value came out at 87.2%. In “Solubility”, the Solubility result is “insoluble in the physiological fluids; also recorded: insolubility”. In data set [3] (P.OS 90 mg/kg), this compound registered a Ka of 0.0146 ± 0.0018 min⁻¹ and a t1/2α of 0.85 ± 0.083333 h. In data set [3] (RECTAL 100 mg/kg), this compound had a Ka of 0.053 ± 0.10 min⁻¹ and a t1/2α of 0.233 ± 0.05 h. Further, in data set [3] (oral and rectal route, rabbits), the “absorption, in words” value is “well absorbed through the oral and rectal route”. In [3] (100 mg/kg, RECTAL 100 mg/kg), the apparent clearance (CL/F) turned out to be 0.54 ± 0.04 mL/min/kg, the k el is 3.83e-05 s⁻¹, the Cmax came to 425 ± 11.9 µg/mL and the Vd/F was 0.274 ± 0.06 L/kg. Also, in data set [3] (100 mg/kg, RECTAL 100 mg/kg), the half-life came to 5.12 ± 0.583 h and the Tmax was 1.1 h. Also, in data set [3] (po, 90 mg/kg, P.OS 90 mg/kg), the CL/F turned out to be 0.64 ± 0.06 mL/min/kg, the k el is 3e-05 s⁻¹, the Cmax was 358 ± 47.8 µg/mL and the Vd/F worked out at 0.326 ± 0.045 L/kg. In data set [3] (po, 90 mg/kg, P.OS 90 mg/kg), the half-life came to 6.9 ± 0.667 h and the Tmax was 2.88 h.
As to `C=CCOc1ccc(CC(=O)O)cc1Cl` [Alclofenac-Arginine], in the data set “Solubility” (listed as Arginine salt), the Solubility result was “scarcely water soluble”. Also, in [4] (setting [8]), the “SCORES at 24 hours, Average” value was 3.9; the “SCORES at 24 hours, individual” value is 6.5 and 2.5 and 3 and 3.5. In addition, in [4] (setting [9]), the “SCORES at 24 hours, Average” value amounted to 1.6; the “SCORES at 24 hours, individual” value was 1.5 and 3.5 and 3 and 0. In addition, the Hygroscopicity entry in data set [5] (listed as Arginine salt) is listed as “non-hygroscopic”. Further, in the data set “pH of aqueous solution” (listed as Arginine salt), the pH of solution amounted to 7.7.
`C=CCOc1ccc(CC(=O)O)cc1Cl` [Alclofenac-Ethanolamine]: the tolerability on injection entry in [6] was “poor tolerability”. In [4] (setting [10]), the “SCORES at 24 hours, Average” value was determined as 3; the “SCORES at 24 hours, individual” value is 3 and 3.5 and 2.5. Further, the “Stability of the solution” value in data set [5] (setting [11]) is “stable”. In the data set “pH of aqueous solution” (setting [11]), this compound had a pH of solution of 7.5.
Turning to `C=CCOc1ccc(CC(=O)O)cc1Cl` [Alclofenac-Methylglucose], in data set [4] (setting [10]), the “SCORES at 24 hours, Average” value came to 2; the “SCORES at 24 hours, individual” value is 0 and 3 (2×). In addition, in data set [4] (setting [8]), the “SCORES at 24 hours, Average” value is reported as 5.4; the “SCORES at 24 hours, individual” value was 2 and 5 and 10 and 4.5. In [5] (listed as Methylglucamine salt), the “Stability of the solution” value was “not very stable” and the Hygroscopicity result is “very hygroscopic”.
With `C=CCOc1ccc(CC(=O)O)cc1Cl` [sodic salt of the acid], the tolerability of injection result in [7] is listed as “scarcely tolerated”.

A word on the CL/F: it is the apparent clearance, not corrected for the fraction that reaches the circulation. The Cmax is the peak of the concentration-time curve. One may read the Tmax as the time from dosing to the highest level.

Source of the values: patent US4189499A, “Lysine 4-allyloxy-3-chlorophenylacetate and method of its preparation” (priority 1979, dated 1980).
